Measured values published in publication PMC11831592, “Repurposing Linezolid in Conjunction with Histone Deacetylase Inhibitor Access in the Realm of Glioblastoma Therapies” (Journal of Medicinal Chemistry, 2025).

How the values were obtained:
GBM = tested on: GBM; set-up: method as in PMID 31505812; settings: GBM patients, vs 12.7 months; cited from earlier work
HDAC6 = molecular target: T1, HDAC6 (Homo sapiens, UniProt Q9UBN7); experiment: HDAC enzyme inhibition assay, HDAC6; format: biochemical; settings: 10-dose, 3-fold serial dilution starting at 10 μM
T1 construct: purchased Reaction Biology Corporation, Malvern, PA (contract assay service)
T1 sequence (Q9UBN7 1-1215): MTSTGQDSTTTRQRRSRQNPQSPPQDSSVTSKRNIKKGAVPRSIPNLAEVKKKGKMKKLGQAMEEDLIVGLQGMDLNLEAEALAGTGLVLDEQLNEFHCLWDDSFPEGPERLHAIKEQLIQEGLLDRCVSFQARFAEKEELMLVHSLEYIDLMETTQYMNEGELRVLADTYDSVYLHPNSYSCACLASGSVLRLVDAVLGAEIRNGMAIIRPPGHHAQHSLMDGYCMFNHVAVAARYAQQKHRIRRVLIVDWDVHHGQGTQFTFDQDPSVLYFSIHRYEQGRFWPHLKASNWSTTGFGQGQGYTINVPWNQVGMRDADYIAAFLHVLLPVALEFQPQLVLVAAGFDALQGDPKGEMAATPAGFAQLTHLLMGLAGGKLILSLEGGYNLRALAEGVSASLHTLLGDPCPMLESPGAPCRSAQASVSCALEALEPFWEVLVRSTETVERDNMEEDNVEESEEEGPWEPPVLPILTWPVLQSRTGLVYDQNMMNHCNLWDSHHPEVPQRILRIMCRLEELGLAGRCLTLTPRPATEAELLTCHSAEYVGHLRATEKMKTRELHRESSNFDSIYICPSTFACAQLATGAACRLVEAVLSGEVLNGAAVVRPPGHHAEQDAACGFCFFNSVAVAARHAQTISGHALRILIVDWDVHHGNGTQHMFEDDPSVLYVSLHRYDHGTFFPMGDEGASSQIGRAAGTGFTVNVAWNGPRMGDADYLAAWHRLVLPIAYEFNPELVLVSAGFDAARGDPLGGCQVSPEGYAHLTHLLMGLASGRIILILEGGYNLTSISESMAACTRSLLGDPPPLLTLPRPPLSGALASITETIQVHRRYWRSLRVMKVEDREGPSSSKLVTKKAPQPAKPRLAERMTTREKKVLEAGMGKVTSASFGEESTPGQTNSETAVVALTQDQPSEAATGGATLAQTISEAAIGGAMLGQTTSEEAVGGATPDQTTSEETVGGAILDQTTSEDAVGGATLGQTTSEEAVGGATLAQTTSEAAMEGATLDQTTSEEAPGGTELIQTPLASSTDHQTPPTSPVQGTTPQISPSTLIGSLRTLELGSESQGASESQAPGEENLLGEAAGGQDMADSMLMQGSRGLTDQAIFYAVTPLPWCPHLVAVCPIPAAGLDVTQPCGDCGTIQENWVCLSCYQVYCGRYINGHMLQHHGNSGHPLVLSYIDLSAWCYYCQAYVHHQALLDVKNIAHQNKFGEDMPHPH
Description: (§1) Enzyme inhibition assays were performed by the Reaction Biology Corporation, Malvern, PA (http://www.reactionbiology.com).

[1] = tested on: PT#3-R TMZ-resistant GBM cell line; experiment: cells; format: cell-based; settings: MTT; for IC50: Homo sapiens, 72 h
Description: The cytotoxic effects of these compounds were assessed using the MTT assay (Table 1 and Supporting Information IV).
MTT assay was employed to evaluate the cytotoxicity of the synthesized compound against resistant GBM cells. The MTT (3-(4,5-dimethylthiazol-2-yl)-2,5-diphenyltetrazolium bromide, catalog no. AM0818-0005) powder was purchased from BIONOVAS (Ontario, Canada). The MTT was prepared at 10 mg/mL stock with ultrapure water and then stored at −20 °C. […] Before the experiment, the MTT stock was 10-fold diluted with the culture medium and then incubated with cells for 30 min. After the incubation, the MTT medium was discarded and added 300 μL of dimethyl sulfoxide (DMSO, cat. no. D2650, Sigma-Aldrich, MO, USA) to dissolve the cells.

HDAC1 = molecular target: T2, HDAC1 (Homo sapiens, UniProt Q13547); experiment: HDAC enzyme inhibition assay, HDAC1; format: biochemical; settings: 10-dose, 3-fold serial dilution starting at 10 μM
T2 construct: purchased Reaction Biology Corporation, Malvern, PA (contract assay service)
T2 sequence (Q13547 whole entry): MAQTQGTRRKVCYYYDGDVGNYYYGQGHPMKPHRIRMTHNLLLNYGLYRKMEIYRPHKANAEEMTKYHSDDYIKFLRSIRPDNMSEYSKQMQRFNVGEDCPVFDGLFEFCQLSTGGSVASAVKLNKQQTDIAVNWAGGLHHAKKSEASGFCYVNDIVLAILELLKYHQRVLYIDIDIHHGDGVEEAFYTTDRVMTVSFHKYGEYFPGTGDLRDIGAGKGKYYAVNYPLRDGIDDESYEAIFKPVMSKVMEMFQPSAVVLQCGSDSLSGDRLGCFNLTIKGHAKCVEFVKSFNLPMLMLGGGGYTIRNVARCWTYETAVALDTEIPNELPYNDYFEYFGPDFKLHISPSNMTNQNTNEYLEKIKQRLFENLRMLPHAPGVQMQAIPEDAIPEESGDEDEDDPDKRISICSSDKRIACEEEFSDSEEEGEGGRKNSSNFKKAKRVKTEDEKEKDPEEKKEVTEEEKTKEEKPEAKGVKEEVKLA
Description: as §1

HDAC8 = molecular target: T3, HDAC8 (Homo sapiens, UniProt Q9BY41); experiment: HDAC enzyme inhibition assay, HDAC8; format: biochemical; settings: 10-dose, 3-fold serial dilution starting at 10 μM
T3 construct: purchased Reaction Biology Corporation, Malvern, PA (contract assay service)
T3 sequence (Q9BY41 1-377): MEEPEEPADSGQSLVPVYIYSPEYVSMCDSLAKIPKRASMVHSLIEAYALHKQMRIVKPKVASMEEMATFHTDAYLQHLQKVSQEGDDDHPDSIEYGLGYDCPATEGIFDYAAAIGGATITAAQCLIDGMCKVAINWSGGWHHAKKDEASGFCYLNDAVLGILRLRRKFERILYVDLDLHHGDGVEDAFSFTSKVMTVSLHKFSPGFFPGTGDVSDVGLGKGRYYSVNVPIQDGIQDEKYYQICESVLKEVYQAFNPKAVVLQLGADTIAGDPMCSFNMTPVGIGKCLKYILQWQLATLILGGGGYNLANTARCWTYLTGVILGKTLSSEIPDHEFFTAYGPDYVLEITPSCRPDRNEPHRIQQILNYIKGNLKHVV
Description: as §1

HDAC2 = molecular target: T4, HDAC2 (Homo sapiens, UniProt Q92769); experiment: HDAC enzyme inhibition assay, HDAC2; format: biochemical; settings: 10-dose, 3-fold serial dilution starting at 10 μM
T4 construct: purchased Reaction Biology Corporation, Malvern, PA (contract assay service)
T4 sequence (Q92769 whole entry): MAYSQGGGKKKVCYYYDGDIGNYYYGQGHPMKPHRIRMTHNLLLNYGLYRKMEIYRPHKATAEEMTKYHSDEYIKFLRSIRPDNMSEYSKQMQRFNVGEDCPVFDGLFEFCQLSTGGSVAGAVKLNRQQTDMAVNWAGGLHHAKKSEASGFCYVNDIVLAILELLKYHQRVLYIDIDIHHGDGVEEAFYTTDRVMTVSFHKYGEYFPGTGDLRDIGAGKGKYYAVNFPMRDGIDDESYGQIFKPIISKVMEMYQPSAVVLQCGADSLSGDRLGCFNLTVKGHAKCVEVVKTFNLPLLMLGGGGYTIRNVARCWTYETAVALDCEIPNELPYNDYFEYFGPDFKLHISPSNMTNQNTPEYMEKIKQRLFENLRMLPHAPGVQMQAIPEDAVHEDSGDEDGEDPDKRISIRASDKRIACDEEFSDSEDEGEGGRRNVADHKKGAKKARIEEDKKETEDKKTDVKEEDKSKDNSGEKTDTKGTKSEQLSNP
Description: as §1

[2] = tested on: TMZ-resistant GBM cell lines A172R and PT#3R; experiment: MTT cytotoxicity assay, TMZ-resistant GBM lines (statement in words); format: cell-based; settings: 0 to 80 μM, 72 h
Description: (§2) We utilized linezolid as the structural foundation to confirm the cytotoxicity of linezolid-conjugated functional domains against glioblastoma (GBM). We combined it with the binding structures of anti-histone deacetylases (HDACs) (denoted as compounds 1–5 and 11–14), antitubulin (compound 6), anticyclooxygenase (COX) (compound 7), and anti-heat shock protein 90 (Hsp90) (compounds 8–10). These constructs were then administered to TMZ-resistant GBM cell lines A172R and PT#3R at concentrations ranging from 0 to 80 μM over 72 h. The cytotoxic effects of these compounds were assessed using the MTT assay (Table 1 and Supporting Information IV). […] Given the remarkable cytotoxicity of compound 1 on both A172-R and PT#3-R TMZ-resistant cells, this study subsequently focused on compound 1 for further in-depth investigation and mechanistic exploration. To validate that the cytotoxic effect of compound 1 on GBM is not attributed to linezolid alone, we separately treated the TMZ-resistant GBM cell line PT#3-R with compound 1 and linezolid. […] This confirms that the cytotoxicity of compound 1 against GBM is primarily attributable to the inhibitory structure of linezolid-conjugated HDAC (Figure 2A). Furthermore, we compared the cytotoxic effects of compound 1 on various wild-type brain tumor cell lines, including U87MG, PT#3, LN229 GBM cells, and CT-2A mouse astrocyte cell line as well as TMZ-resistant variants cell lines, including U87MG-R, PT#3-R, CT-2A-R, and T98G (MGMT-positive). […] Additionally, we further confirmed the efficacy of compound 1 in GBM treatment.
MTT assay was employed to evaluate the cytotoxicity of the synthesized compound against resistant GBM cells. The MTT (3-(4,5-dimethylthiazol-2-yl)-2,5-diphenyltetrazolium bromide, catalog no. AM0818-0005) powder was purchased from BIONOVAS (Ontario, Canada). The MTT was prepared at 10 mg/mL stock with ultrapure water and then stored at −20 °C. […] Finally, 100 μL of the mixture was transferred to measure the OD 595 nm absorbance.

[3] = tested on: A172-R TMZ-resistant GBM cell line; experiment: MTT cytotoxicity assay, A172-R; format: cell-based; settings: Homo sapiens, 72 h
Description: as §2
MTT assay was employed to evaluate the cytotoxicity of the synthesized compound against resistant GBM cells. The MTT (3-(4,5-dimethylthiazol-2-yl)-2,5-diphenyltetrazolium bromide, catalog no. AM0818-0005) powder was purchased from BIONOVAS (Ontario, Canada). The MTT was prepared at 10 mg/mL stock with ultrapure water and then stored at −20 °C. All cells were seeded 2.5 × 10^4 per well in the 24-well plate for 24 h, followed by treating at different concentrations of compounds for 72 h. Before the experiment, the MTT stock was 10-fold diluted with the culture medium and then incubated with cells for 30 min. After the incubation, the MTT medium was discarded and added 300 μL of dimethyl sulfoxide (DMSO, cat. no. D2650, Sigma-Aldrich, MO, USA) to dissolve the cells. Finally, 100 μL of the mixture was transferred to measure the OD 595 nm absorbance.

[4] = within 5–7 h; cited from earlier work
[5] = set-up: method as in PMID 36921275; settings: meningitis patients; cited from earlier work

Compound	IC50 (HDAC6)	IC50 [1]	IC50 (HDAC1)	IC50 (HDAC8)	IC50 (HDAC2)	IC50 [3]	other results
Cn1nnc2c(C(N)=O)ncn2c1=O [TMZ, temozolomide]	–	–	–	–	–	–	overall survival (GBM): 21.7 months
O=C(CCCCCCC(=O)NC[C@H]1CN(c2ccc(N3CCOCC3)c(F)c2)C(=O)O1)NO [compound 2, (S)-N1-((3-(3-Fluoro-4-morpholinophenyl)-2-oxooxazolidin-5-yl)methyl)-N8-hydroxyoctanediamide]	0.304 µM	164 ± 41.5 µM	3.37 µM	1.11 µM	6.43 µM	–	–
O=C(NO)c1ccc(CNC[C@H]2CN(c3ccc(N4CCOCC4)c(F)c3)C(=O)O2)cc1 [compound 3, (S)-4-((((3-(3-Fluoro-4-morpholinophenyl)-2-oxooxazolidin-5-yl)methyl)amin-o)methyl)-N-hydroxybenzamide]	0.061 µM	114 ± 20.8 µM	> 10 µM	0.938 µM	> 10 µM	–	–
Nc1ccccc1NC(=O)c1ccc(CNC[C@H]2CN(c3ccc(N4CCOCC4)c(F)c3)C(=O)O2)cc1 [compound 4, (S)-N-(2-Aminophenyl)-4-((((3-(3-fluoro-4-morpholinophenyl)-2-oxooxazolidin-5-yl)methyl)amino)methyl)benzamide]	–	41.4 ± 5.01 µM	0.979 µM	–	2.02 µM	19 ± 2.53 µM	cytotoxicity in TMZ-resistant GBM [2]: exhibited the capacity to induce cytotoxicity
O=C(/C=C/c1cccc(S(=O)(=O)NC[C@H]2CN(c3ccc(N4CCOCC4)c(F)c3)C(=O)O2)c1)NO [compound 5, (R,E)-3-(3-(N-((3-(3-Fluoro-4-morpholinophenyl)-2-oxooxazolidin-5-yl)methyl)su-lfamoyl)phenyl)-N-hydroxyacrylamide]	0.095 µM	124 ± 17.5 µM	0.735 µM	0.803 µM	1.66 µM	–	–
O=C(NC[C@H]1CN(c2ccc(N3CCOCC3)c(F)c2)C(=O)O1)c1cc(Cl)ccc1O [compound 7, (S)-5-Chloro-N-((3-(3-fluoro-4-morpholinophenyl)-2-oxooxazolidin-5-yl)methyl)-2-hydroxybenzamide]	–	52.1 ± 6.26 µM	–	–	–	224 ± 80.3 µM	–
CC(C)c1cc(C(=O)NC[C@H]2CN(c3ccc(N4CCOCC4)c(F)c3)C(=O)O2)c(O)cc1O [compound 8, (S)-N-((3-(3-Fluoro-4-morpholinophenyl)-2-oxooxazolidin-5-yl)methyl)-2,4-dihydroxy-5-isopropylbenzamide]	–	58 ± 6.23 µM	–	–	–	65.2 ± 11.2 µM	–
CC(C)c1cc(C(=O)N(C)C[C@H]2CN(c3ccc(N4CCOCC4)c(F)c3)C(=O)O2)c(O)cc1O [compound 9, (S)-N-((3-(3-Fluoro-4-morpholinophenyl)-2-oxooxazolidin-5-yl)methyl)-2,4-dihydroxy-5-isopropyl-N-methylbenzamide]	–	15.3 ± 2.1 µM	–	–	–	35.6 ± 4.64 µM	cytotoxicity in TMZ-resistant GBM [2]: exhibited the capacity to induce cytotoxicity
CCN(C[C@H]1CN(c2ccc(N3CCOCC3)c(F)c2)C(=O)O1)C(=O)c1cc(C(C)C)c(O)cc1O [compound 10, (S)-N-((3-(3-Fluoro-4-morpholinophenyl)-2-oxooxazolidin-5-yl)methyl)-2,4-dihydroxy-5-isopropyl-N-ethylbenzamide]	–	48.8 ± 4.77 µM	–	–	–	80.6 ± 9.99 µM	–
CC(=O)NC[C@H]1CN(c2ccc(N3CCOCC3)c(F)c2)C(=O)O1 [linezolid, (S)-N-((3-(3-Fluoro-4-morpholinophenyl)-2-oxooxazolidin-5-yl)methyl)acetamide]	–	–	–	–	–	–	excreted in its original form in urine [4]: 30%; cytotoxicity in resistant GBM cells ([1]; 80 to 100 μM): did not induce cytotoxicity; penetration between blood and cerebrospinal fluid [5]: more than 70%
